From PubChem BioAssay AID248 (DTP/NCI, 2004)
Inconclusive results and toxic doses are left out.

Test system: L1210 leukemia ip in BDF1 mice, survival T/C
Test: NCI In Vivo Anticancer Drug Screen. Data for tumor model L1210 Leukemia (intraperitoneal) in B6D2F1 (BDF1) mice
Settings: endpoint: mean survival time, higher = longer survival
In short: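 Transplantable tumor model; survival measured in treated vs vehicle control mice. Value = treated/control.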

[1] = dose: 100.0 mg/kg/injection, schedule: Q01DX001 (ip), vehicle: carboxymethylcellulose (CMC)
[2] = dose: 200.0 mg/kg/injection, schedule: Q01DX001 (ip), vehicle: carboxymethylcellulose (CMC)
[3] = dose: 400.0 mg/kg/injection, schedule: Q01DX001 (ip), vehicle: carboxymethylcellulose (CMC)
[4] = dose: 25.0 mg/kg/injection, schedule: Q04DX002 (ip), vehicle: saline with Tween-80
[5] = dose: 50.0 mg/kg/injection, schedule: Q04DX002 (ip), vehicle: saline with Tween-80
[6] = dose: 25.0 mg/kg/injection, schedule: Q01DX009 (ip), vehicle: saline
[7] = dose: 50.0 mg/kg/injection, schedule: Q01DX009 (ip), vehicle: saline
[8] = dose: 100.0 mg/kg/injection, schedule: Q01DX009 (ip), vehicle: saline
[9] = dose: 100.0 mg/kg/injection, schedule: Q04DX003 (ip), vehicle: saline
[10] = dose: 200.0 mg/kg/injection, schedule: Q04DX003 (ip), vehicle: saline
[11] = dose: 400.0 mg/kg/injection, schedule: Q04DX003 (ip), vehicle: saline
[12] = dose: 100.0 mg/kg/injection, schedule: Q04DX003 (ip), vehicle: Klucel (hydroxypropylcellulose) (HPC)
[13] = dose: 200.0 mg/kg/injection, schedule: Q04DX003 (ip), vehicle: Klucel (hydroxypropylcellulose) (HPC)
[14] = dose: 400.0 mg/kg/injection, schedule: Q04DX003 (ip), vehicle: Klucel (hydroxypropylcellulose) (HPC)

CC(=O)NCCc1[nH]cnc1N=Nc1ccc(Br)cc1
T/C (dose: 100.0 mg/kg/injection, schedule: Q01DX001 (ip), vehicle: saline with Tween-80): 96 % of control
T/C (dose: 200.0 mg/kg/injection, schedule: Q01DX001 (ip), vehicle: saline with Tween-80): 96 % of control
T/C (dose: 400.0 mg/kg/injection, schedule: Q01DX001 (ip), vehicle: saline with Tween-80): 94 % of control

CC1(C)N=C(N)N=C(N)N1c1cccc(OCCOc2ccc(NC(=O)/C=C/C(=O)O)cc2)c1
T/C [1]: 101 % of control
T/C [2]: 97 % of control
T/C [3]: 94 % of control

COC(=O)c1c(C(N)=O)n[nH]c1C1OC(COCc2ccccc2)C(OCc2ccccc2)C1OCc1ccccc1 (stereo unspecified)
T/C (dose: 100.0 mg/kg/injection, schedule: Q01DX005 (ip), vehicle: saline with Tween-80): 102 % of control
T/C (dose: 200.0 mg/kg/injection, schedule: Q01DX005 (ip), vehicle: saline with Tween-80): 100 % of control

CCC(C)Nc1ccc(NS(=O)(=O)CCl)cc1 (stereo unspecified)
T/C [4]: 97 % of control
T/C [5]: 106 % of control
T/C (dose: 100.0 mg/kg/injection, schedule: Q04DX002 (ip), vehicle: saline with Tween-80): 100 % of control

CCC12CCC(=O)C=C1CCCC2=O (stereo unspecified)
T/C [6]: 100 % of control
T/C [7]: 97 % of control
T/C [8]: 90 % of control

CCOC(=O)c1ccc(S(=O)(=O)NCCCc2c(C)nc(N)[nH]c2=O)cc1
T/C (dose: 12.5 mg/kg/injection, schedule: Q01DX001 (ip), vehicle: saline with Tween-80): 90 % of control
T/C (dose: 25.0 mg/kg/injection, schedule: Q01DX001 (ip), vehicle: saline with Tween-80): 103 % of control
T/C (dose: 50.0 mg/kg/injection, schedule: Q01DX001 (ip), vehicle: saline with Tween-80): 90 % of control

CC(C)=C(Br)CN
T/C [9]: 95 % of control
T/C [10]: 108 % of control
T/C [11]: 94 % of control

O=C1C=CC(=O)N1CO
T/C (dose: 2.5 mg/kg/injection, schedule: Q01DX009 (ip), vehicle: saline): 91 % of control
T/C (dose: 2.5 mg/kg/injection, schedule: Q04DX003 (ip), vehicle: saline): 96 % of control
T/C (dose: 5.0 mg/kg/injection, schedule: Q01DX009 (ip), vehicle: saline): 94 % of control
T/C (dose: 5.0 mg/kg/injection, schedule: Q04DX003 (ip), vehicle: saline): 98 % of control
T/C (dose: 10.0 mg/kg/injection, schedule: Q04DX003 (ip), vehicle: saline): 91 % of control

CCOC(=O)C(CC(C)C)NC(=O)c1ccc(C)c2c1Nc1c(c(C)c3oc(=O)c(C)nc3c1C(=O)NC(CC(C)C)C(=O)OCC)O2 (stereo unspecified)
T/C (dose: 75.0 mg/kg/injection, schedule: Q01DX001 (ip), vehicle: other): 91 % of control
T/C (dose: 150.0 mg/kg/injection, schedule: Q01DX001 (ip), vehicle: other): 86 % of control
T/C (dose: 300.0 mg/kg/injection, schedule: Q01DX001 (ip), vehicle: other): 88 % of control

CCCCC(=O)OCC1OC(n2cnc3c(=S)nc[nH]c32)C(OC(=O)CCCC)C1OC(=O)CCCC (stereo unspecified)
T/C (dose: 50.0 mg/kg/injection, schedule: Q01DX015 (ip), vehicle: carboxymethylcellulose (CMC)): 151 % of control
T/C (dose: 50.0 mg/kg/injection, schedule: Q01DX Z (ip), vehicle: carboxymethylcellulose (CMC)): 117 % of control
T/C (dose: 100.0 mg/kg/injection, schedule: Q01DX015 (ip), vehicle: carboxymethylcellulose (CMC)): 172 % of control
T/C (dose: 200.0 mg/kg/injection, schedule: Q01DX Z (ip), vehicle: carboxymethylcellulose (CMC)): 161 % of control
T/C (dose: 400.0 mg/kg/injection, schedule: Q01DX Z (ip), vehicle: carboxymethylcellulose (CMC)): 87 % of control

COC1OC(COC(C)=O)C(OC(C)=O)C(NC(=O)NCCCl)C1OC(C)=O (stereo unspecified)
T/C (dose: 100.0 mg/kg/injection, schedule: Q01DX001 (ip), vehicle: Klucel (hydroxypropylcellulose) (HPC)): 105 % of control
T/C (dose: 200.0 mg/kg/injection, schedule: Q01DX001 (ip), vehicle: Klucel (hydroxypropylcellulose) (HPC)): 102 % of control
T/C (dose: 400.0 mg/kg/injection, schedule: Q01DX001 (ip), vehicle: Klucel (hydroxypropylcellulose) (HPC)): 102 % of control

CCOC(=O)C1C(CCCCO)CC(=O)CC1(C)C(N)=O (stereo unspecified)
T/C (dose: 100.0 mg/kg/injection, schedule: Q01DX001 (ip), vehicle: saline): 97 % of control
T/C (dose: 200.0 mg/kg/injection, schedule: Q01DX001 (ip), vehicle: saline): 91 % of control
T/C (dose: 400.0 mg/kg/injection, schedule: Q01DX001 (ip), vehicle: saline): 95 % of control

Oc1c(Cl)cc(N=Cc2ccc(N(CCCCl)CCCCl)cc2Cl)cc1Cl
T/C (dose: 50.0 mg/kg/injection, schedule: Q04DX003 (ip), vehicle: Klucel (hydroxypropylcellulose) (HPC)): 101 % of control
T/C [12]: 104 % of control
T/C [13]: 101 % of control
T/C [14]: 98 % of control

CCN(CC)CCSc1ccnc2cc(Cl)ccc12
T/C [9]: 94 % of control
T/C [10]: 96 % of control
T/C [11]: 100 % of control

O=C1C=C(Nc2ccc(Cl)cc2)C(=O)c2ccccc21
T/C (dose: 75.0 mg/kg/injection, schedule: Q01DX001 (ip), vehicle: carboxymethylcellulose (CMC)): 93 % of control
T/C (dose: 300.0 mg/kg/injection, schedule: Q01DX001 (ip), vehicle: carboxymethylcellulose (CMC)): 87 % of control

Cc1cc(Br)c2c(C)ccc(C)c2n1
T/C (dose: 2.0 mg/kg/injection, schedule: Q01DX001 (ip), vehicle: saline): 98 % of control
T/C (dose: 5.0 mg/kg/injection, schedule: Q01DX001 (ip), vehicle: saline): 102 % of control
T/C (dose: 10.0 mg/kg/injection, schedule: Q01DX001 (ip), vehicle: saline): 96 % of control

C=CCN(CC=C)CC=C
T/C [6]: 100 % of control
T/C [7]: 97 % of control
T/C [8]: 100 % of control

CC(=O)OCCN(C)C
T/C (dose: 75.0 mg/kg/injection, schedule: Q01DX009 (ip), vehicle: saline): 104 % of control
T/C (dose: 100.0 mg/kg/injection, schedule: Q04DX002 (ip), vehicle: saline): 100 % of control
T/C (dose: 150.0 mg/kg/injection, schedule: Q01DX009 (ip), vehicle: saline): 101 % of control
T/C (dose: 200.0 mg/kg/injection, schedule: Q04DX002 (ip), vehicle: saline): 110 % of control
T/C (dose: 300.0 mg/kg/injection, schedule: Q01DX009 (ip), vehicle: saline): 101 % of control
T/C (dose: 400.0 mg/kg/injection, schedule: Q04DX002 (ip), vehicle: saline): 113 % of control

C=CCOc1ccccc1OCC=C
T/C [1]: 107 % of control
T/C [2]: 102 % of control
T/C [3]: 100 % of control

CCNC(=O)Oc1c(Cl)cc(S(=O)(=O)F)cc1Cl
T/C (dose: 12.5 mg/kg/injection, schedule: Q01DX009 (ip), vehicle: saline with Tween-80): 90 % of control
T/C (dose: 12.5 mg/kg/injection, schedule: Q04DX002 (ip), vehicle: saline with Tween-80): 93 % of control
T/C (dose: 25.0 mg/kg/injection, schedule: Q01DX009 (ip), vehicle: saline with Tween-80): 103 % of control
T/C [4]: 101 % of control
T/C [5]: 96 % of control

Nc1nc2nc(N=Nc3ccc(N=Nc4nc5nc(N)[nH]c(=O)c5[nH]4)cc3)[nH]c2c(=O)[nH]1
T/C [12]: 91 % of control
T/C [13]: 99 % of control
T/C [14]: 88 % of control
